Assay results reported in patent US20140274766A1, “METHODS OF USING F-SPONDIN AS A BIOMARKER FOR CARTILAGE DEGENERATIVE CONDITIONS AND BONE DISEASES” (priority 2009, published 2014).

Experiments:
OA chondrocytes = assay: Effect of PGE2 on chondrocytes (secretion, NURR1 QPCR); assay type: cell-based, human
Protocol: (§1) F-spondin induced both catabolic and anabolic gene/gene products in chondrocytes including BMP-2, type II collagen, TGF-β1, COX-2, mPGES and PGE2. To begin to address the question of whether selected F-spondin effects in cartilage are mediated by prostaglandin production, we have begun studies to characterize the effect of PGE2 in cartilage. Addition of PGE2 (1-10 uM) to cartilage explants inhibited type II collagen, aggrecan expression, ^35SO4 incorporation, as well as increased type II collagen degradation as assessed by C12C ELISA (IBEX). […] Relative to normals, NURR1 was overexpressed in OA cartilage (2-5 fold) and synovium (2 fold), confirmed by QPCR. Incubation of OA chondrocytes with PGE2 (1-10 uM) induced NURR1 expression (20-50 fold), as analyzed by QPCR. Since NURR1 binds to the NURR1 cis-acting sequence (NBRE) in the promoter region of a variety of genes, we examined the effect of adenoviral-mediated over-expression of NURR1 in chondrocytes.

[1] = tested on: F-spondin expression in human chondrocytes; assay: Induction of F-spondin expression in human chondrocytes, TaqMan quantitative PCR; assay type: cell-based
Excerpt: In another particular embodiment, the candidate compound is further tested for an effect in an animal model for arthritis, or a cartilage degenerative condition, wherein said arthritis or cartilage degenerative condition is characterized by elevated levels of F-spondin. Examples of animal models for studying arthritis and cartilage degenerative conditions may be found in the following publications, which are incorporated in their entireties: Ameye, L. G. et al., Current Opinion in Rheumatology (2006), 18(5):537-547; Warskyj, M. and Hukins, D W, Br. J. of Rheumatology (1990), 29:219-221; Bolter, S. M. et al., Biorheology, (2006), 43(3-4):379-388; Carlson, C. S. et al., J. Bone Miner. Res. (1996), September; 11(9):1209-1217; Moreau, M. et al., J. Rheumatology (2006), June; 33(6):1176-1183; Laurent, D. et al. Skeletal Radiol., (2006), August; 35(8):555-564; Hotta, H. et al. J. Orthop. Sci. (2005), November; 10(6):595-607; Mastbergen, S. C. et al. Rheumatology (Oxford), (2006), April; 45(4):405-413; and Mastbergen, S. C. et al., Osteoarthritis Cartilage (2006), January; 14(1):39-46. Chambers M. G. et al., Arthritis and Rheumatism (2001) June 44(6):1455-1465. In another particular embodiment, the potential inducers of F-spondin in cartilage/chondrocytes for use in a therapeutic setting may be selected from the group consisting of prostaglandin E2 (PGE2), cAMP inducers, Bone morphogenic protein 2 (BMP-2), Insulin-like growth factor (IGF), Fibroblast growth factor basic (FGFbasic) and Transforming Growth factor b1 (TGF-b1). […] Accordingly, it is envisioned that these agents may be used for treating conditions as described herein.

cartilage explants = assay: Effect of PGE2 on cartilage explants; assay type: cell-based, human; settings: PGE2 1-10 uM
Protocol: as §1

[2] = tested on: chick sternal chondrocytes; assay: Retinoic acid induced maturation of chick sternal chondrocytes (RT-PCR, AP staining); assay type: cell-based
Protocol: FIGS. 21A and 21B. […] Upper sternal chondrocytes were exposed to 0, 10, 35 or 100 nM retinoic acid (RA) for 5 days in culture. […] (B) Relative gene expression levels of chondrocyte maturation markers were determined by semi-quantitative RT-PCR of RNA harvested from parallel cultures. Values represent mean±std deviation for triplicate samples.
Chondrocytes were isolated from the cephalic and caudal portion of day 14 chick embryo sterna as described by (Teixeira C C, Shapiro I M, Hatori M, Rajpurohit R, Koch C. Retinoic acid modulation of glutathione and cysteine metabolism in chondrocytes. Biochem J 1996; 314 (Pt 1):21-6). After 5 days of primary culture, chondrocytes were separated from the attached fibroblasts, harvested by centrifugation, counted, and plated in tissue culture dishes in complete medium supplemented with hyaluronidase (4-units/ml) to promote attachment. After becoming confluent, and to induce maturation, cells were treated daily with all-trans retinoic acid (35-100 nM) (Sigma) in the presence of ascorbate-2-phosphate (100 μM) for 1 week. Control cultures were treated with an equal volume of vehicle. Cultures were provided with β-glycerophosphate (5 mM) to serve as phosphate donor. For transfections, chondrocytes were transiently transfected with a plasmid encoding full length F-spondin cDNA under control of a CMV promoter, 1 day after plating in monolayer culture, using the FuGene 6 Transfection Reagent (Roche, Nutley, N.J.) according to the manufacturer's specifications. Parallel transfections with a CMV-GFP plasmid was used as a null control and to estimate transfection efficiency.
To investigate the role of F-spondin in chondrocyte maturation, we used an in vitro model in which chick sternal chondrocytes mimic growth plate chondrocytes and undergo terminal differentiation in response to RA treatment. […] Chick chondrocytes were stimulated with increasing doses of RA (10-100 nm) and harvested for gene expression analysis by qPCR after 5 days. The relative gene expression of type X collagen (ColX), alkaline phosphatae (AP), MMP-13, and F-spondin were assessed with increasing maturation on RA stimulation (FIG. 14).
Chondrocytes were isolated from the cephalic (upper) portion of 14 day old chick embryo sterna as previously described (Teixeira, C. C., et al. (1995) Calcif Tissue Int 56:252-56).^15. After 5 days of primary culture, floating chondrocytes were separated from the attached fibroblasts, and plated in tissue culture dishes in DMEM supplemented with 10% FBS and hyaluronidase (4-units/ml) to promote attachment. At confluence, differentiation was induced by daily treatment with all-trans retinoic acid (RA) from 0.1% v/v aliquots of a 1000-fold stock solution in 95% ethanol. Final concentrations ranged from 10 to 100 nM. To examine the effect of F-spondin overexpression, cultures were transfected at 70-80% confluence, with either full length (pFSI), truncated (pFS6) F-spondin cDNAs or control vector pcDNA3 (Invitrogen) using GenePorter transfection reagent (Genlantis, San Diego, Calif.). Differentiation was induced by daily treatments with 100 nM RA, which were initiated the following day. For F-spondin inhibition studies, a TSR domain specific F-spondin antibody (R1), or a spondin domain specific F-spondin antibody (R4) (R1 and R4 antibodies were provided by Dr. Avihu Klar (Hebrew University, Jerusalem, Israel), were added to chondrocyte cultures (1:100 dilution), every other day 1 h prior to RA treatment.
Different regions of the chick growth plate were visually identified and dissected into separate tubes, frozen in liquid nitrogen and crushed. Total RNA was extracted using Trizol® reagent (Life Technologies, Gaitherburg, Md.) per manufacturer's instructions.

bone marrow-derived MSCs = assay: Chondrogenesis of bone marrow-derived MSC aggregate cultures; assay type: cell-based; settings: for staining for proteoglycan, type II and type X collagen: 21 d aggregates, adenoviral expression 50 ng/ml; for chondrogenesis in aggregate cultures: adult bone marrow-derived MSCs
Protocol: FIG. 6: Chondrogenesis of postnatal MSCs following exposure to TGF-β and BMP-2. Bone marrow-derived MSCs were modified to express 50 ng/ml BMP-2 or TGF-β1 using first generation recombinant adenoviral vectors and seeded into high density aggregates. After 21 d, aggregates were fixed, sectioned and stained for the presence of chondrogenic markers using toluidine blue (proteoglycan) and immunostaining for type II and X collagen. This pattern was consistent over three experiments.
Upon histological examination important differences between TGF-β1 and BMP-2-treated cultures were noted (FIG. 6). […] We propose to extend these studies further, in order to more fully characterize extracellular matrix protein expression during chondrocyte maturation and the relationship to F-spondin, by comparing the effects of various chondroinductive factors.

CCCCC[C@H](O)/C=C/[C@H]1[C@H](O)CC(=O)[C@@H]1C/C=C\CCCC(=O)O [PGE2, prostaglandin E2]
induction of NURR1 expression (OA chondrocytes; OA chondrocytes, PGE2 1-10 uM, QPCR): 20-50 fold
MMP-1 secretion (OA chondrocytes; chondrocytes): decreased
secretion of IL-6 (OA chondrocytes; chondrocytes): increased
secretion of IL-8 (OA chondrocytes; chondrocytes): increased
secretion of MMP-13 (OA chondrocytes; chondrocytes): increased
F-spondin expression [1]: induced F-spondin expression
35SO4 incorporation (cartilage explants): inhibited
aggrecan expression (cartilage explants): inhibited
type II collagen degradation (C12C ELISA) (cartilage explants): increased
type II collagen expression (cartilage explants): inhibited

CC1=C(/C=C/C(C)=C/C=C/C(C)=C/C(=O)O)C(C)(C)CCC1 [RA, all-trans retinoic acid]
F-spondin expression relative to controls ([2]; 100 nM RA, 5 days, p=0.04): approximately 3 fold
MMP-13 expression ([2]; RA 0-100 nM, 5 days, RT-PCR): increased
VEGF expression ([2]; RA 0-100 nM, 5 days, RT-PCR): increased
type I collagen expression ([2]; RA 0-100 nM, 5 days, RT-PCR): pronounced upregulation
type II collagen expression ([2]; RA 0-100 nM, 5 days, RT-PCR): marked downregulation
type X collagen expression ([2]; RA 0-100 nM, 5 days, RT-PCR): did not increase
AP activity (red staining) ([2]; RA 0-100 nm, 5 days): dose dependant increase
increase in F-spondin gene expression ([2]; RA 10-100 nm, 5 days, vs non-stimulated controls): 2- to 4 fold
upregulation of F-spondin following RA treatment ([2]; chick sternal model, p<0.05): 3.5 fold

FGF basic: Fibroblast growth factor basic
F-spondin expression [1]: induced F-spondin expression

TGF-β1: Transforming growth factor-beta 1
F-spondin expression [1]: induced F-spondin expression
staining for proteoglycan, type II and type X collagen (bone marrow-derived MSCs): generally lower
chondrogenesis in aggregate cultures (bone marrow-derived MSCs): undergo chondrogenesis

B1: BMP-2: protein that induces the formation of bone and cartilage (protein, listed as Homo sapiens)
chain: MVAGTRCLLALLLPQVLLGGAAGLVPELGRRKFAAASSGRPSSQPSDEVLSEFELRLLSMFGLKQRPTPSRDAVVPPYMLDLYRRHSGQPGSPAPDHRLERAASRANTVRSFHHEESLEELPETSGKTTRRFFFNLSSIPTEEFITSAELQVFREQMQDALGNNSSFHHRINIYEIIKPATANSKFPVTRLLDTRLVNQNASRWESFDVTPAVMRWTAQGHANHGFVVEVAHLEEKQGVSKRHVRISRSLHQDEHSWSQIRPLLVTFGHDGKGHPLHKREKRQAKHKQRKRLKSSCKRHPLYVDFSDVGWNDWIVAPPGYHAFYCHGECPFPLADHLNSTNHAIVQTLVNSVNSKIPKACCVPTELSAISMLYLDENEKVVLKNYQDMVVEGCGCR
F-spondin expression [1]: induced F-spondin expression
staining for proteoglycan, type II and type X collagen (bone marrow-derived MSCs): more intense staining
chondrogenesis in aggregate cultures (bone marrow-derived MSCs): undergo chondrogenesis
